Results from PubChem BioAssay AID248 (DTP/NCI, 2004).
“And” between values parts separate entries of the source, which are not always exact repeats. Identical values can stand only once. Toxic doses and inconclusive results are not listed. Rule as the data show it: active = T/C of 150% or more; inactive = T/C below 125%.

System: L1210 leukemia ip in BDF1 mice, survival T/C
Test: NCI In Vivo Anticancer Drug Screen. Data for tumor model L1210 Leukemia (intraperitoneal) in B6D2F1 (BDF1) mice
Settings: endpoint: mean survival time, higher = longer survival
Summary of the method: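 Transplanted-tumor mice were given test agent; controls received vehicle only. Survival readings from the two groups were divided (treated over control).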

[1] = dose: 100.0 mg/kg/injection, schedule: Q01DX001 (ip), vehicle: carboxymethylcellulose (CMC)
[2] = dose: 200.0 mg/kg/injection, schedule: Q01DX001 (ip), vehicle: carboxymethylcellulose (CMC)
[3] = dose: 400.0 mg/kg/injection, schedule: Q01DX001 (ip), vehicle: carboxymethylcellulose (CMC)
[4] = dose: 50.0 mg/kg/injection, schedule: Q01DX001 (ip), vehicle: Klucel (hydroxypropylcellulose) (HPC)
[5] = dose: 100.0 mg/kg/injection, schedule: Q01DX001 (ip), vehicle: Klucel (hydroxypropylcellulose) (HPC)
[6] = dose: 200.0 mg/kg/injection, schedule: Q01DX001 (ip), vehicle: Klucel (hydroxypropylcellulose) (HPC)
[7] = dose: 400.0 mg/kg/injection, schedule: Q01DX001 (ip), vehicle: Klucel (hydroxypropylcellulose) (HPC)
[8] = dose: 100.0 mg/kg/injection, schedule: Q01DX009 (ip), vehicle: saline with Tween-80
[9] = dose: 100.0 mg/kg/injection, schedule: Q04DX003 (ip), vehicle: saline with Tween-80
[10] = dose: 200.0 mg/kg/injection, schedule: Q01DX009 (ip), vehicle: saline with Tween-80
[11] = dose: 200.0 mg/kg/injection, schedule: Q04DX003 (ip), vehicle: saline with Tween-80
[12] = dose: 400.0 mg/kg/injection, schedule: Q01DX009 (ip), vehicle: saline with Tween-80
[13] = dose: 400.0 mg/kg/injection, schedule: Q04DX003 (ip), vehicle: saline with Tween-80
[14] = dose: 25.0 mg/kg/injection, schedule: Q04DX003 (ip), vehicle: saline with Tween-80
[15] = dose: 50.0 mg/kg/injection, schedule: Q04DX003 (ip), vehicle: saline with Tween-80
[16] = dose: 100.0 mg/kg/injection, schedule: Q04DX003 (ip), vehicle: saline
[17] = dose: 200.0 mg/kg/injection, schedule: Q04DX003 (ip), vehicle: saline
[18] = dose: 400.0 mg/kg/injection, schedule: Q04DX003 (ip), vehicle: saline
[19] = dose: 100.0 mg/kg/injection, schedule: Q04DX002 (ip), vehicle: saline
[20] = dose: 100.0 mg/kg/injection, schedule: Q01DX009 (ip), vehicle: saline
[21] = dose: 200.0 mg/kg/injection, schedule: Q01DX009 (ip), vehicle: saline
[22] = dose: 400.0 mg/kg/injection, schedule: Q01DX001 (ip), vehicle: saline
[23] = dose: 400.0 mg/kg/injection, schedule: Q01DX009 (ip), vehicle: saline

Measured: T/C

O=C1c2ccccc2-c2oc(=O)c3ccccc3c21
inactive: dose: 50.0 mg/kg/injection, schedule: Q01DX001 (ip), vehicle: carboxymethylcellulose (CMC) 96 % of control | [1] 96 % of control | [2] 94 % of control | [3] 96 % of control

CCCCCCCCCCCCCC(=O)OC1CCC2(C)C(=CCC3C2CCC2(C)C(C(C)CCCC(C)C)CCC32)C1 (centres undefined)
inactive: [4] 96 % of control | [5] 89 % of control | [6] 87 % of control and 89 % of control | [7] 87 % of control

ClCCN(CCCl)c1ccc(C=Nc2ccc(-c3csc(Cc4ccccc4)n3)c(Cl)c2)cc1
inactive: [1] 93 % of control | [2] 88 % of control | [3] 87 % of control

CC1CC(=O)NC(=O)N1 (centres undefined)
inactive: [8] 98 % of control | [9] 105 % of control | [10] 100 % of control | [11] 93 % of control | [12] 106 % of control | [13] 107 % of control

O=C(NC1CCCCC1)c1ccc([N+](=O)[O-])cc1
inactive: [5] 104 % of control | [6] 101 % of control | [7] 101 % of control

CCCCS(=O)(=O)N(CCC)CCC
inactive: dose: 100.0 mg/kg/injection, schedule: Q04DX002 (ip), vehicle: saline with Tween-80 93 % of control | dose: 200.0 mg/kg/injection, schedule: Q04DX002 (ip), vehicle: saline with Tween-80 93 % of control | dose: 400.0 mg/kg/injection, schedule: Q04DX002 (ip), vehicle: saline with Tween-80 97 % of control

COc1cc(Br)c(CCC(N)=O)cc1OC
inactive: [9] 96 % of control | [11] 95 % of control | [13] 93 % of control

CC(=O)OCC(=O)[C@@]1(O)CC[C@H]2[C@@H]3CCC4=CC(=O)C=C[C@]4(C)[C@@]3(F)[C@@H](O)C[C@@]21C
inactive: dose: 12.5 mg/kg/injection, schedule: Q01DX009 (ip), vehicle: saline with Tween-80 117 % of control | dose: 25.0 mg/kg/injection, schedule: Q01DX009 (ip), vehicle: saline with Tween-80 101 % of control | dose: 50.0 mg/kg/injection, schedule: Q01DX009 (ip), vehicle: saline with Tween-80 96 % of control

N#CC(C#N)=Cc1ccc(Cl)cc1
inactive: dose: 50.0 mg/kg/injection, schedule: Q01DX001 (ip), vehicle: other 105 % of control | dose: 100.0 mg/kg/injection, schedule: Q01DX001 (ip), vehicle: other 102 % of control | dose: 200.0 mg/kg/injection, schedule: Q01DX001 (ip), vehicle: other 113 % of control

N=C(N)c1ccc(-c2cc3ccc(C(=N)N)cc3s2)cc1
inactive: dose: 12.5 mg/kg/injection, schedule: Q04DX003 (ip), vehicle: saline with Tween-80 96 % of control | [14] 107 % of control | [15] 96 % of control

Cc1ccc(-n2c(O)c(N=Nc3ccc(Br)cc3)c(=O)n(-c3ccccc3)c2=S)cc1
inactive: [4] 97 % of control | [5] 111 % of control | [6] 94 % of control

CC(=O)Nc1cc(C)c(Cl)cc1Cl
inactive: dose: 31.25 mg/kg/injection, schedule: Q01DX009 (ip), vehicle: saline 103 % of control | dose: 62.5 mg/kg/injection, schedule: Q01DX009 (ip), vehicle: saline 103 % of control | [16] 100 % of control | dose: 125.0 mg/kg/injection, schedule: Q01DX009 (ip), vehicle: saline 102 % of control | [17] 105 % of control | [18] 101 % of control

CC(=O)Nc1ccc2c(c1)OCO2
inactive: [8] 101 % of control | [9] 107 % of control | [10] 102 % of control | [11] 108 % of control | [13] 103 % of control

CNCCCNCC1C(c2ccccc2)C1c1ccccc1 (centres undefined)
inactive: dose: 25.0 mg/kg/injection, schedule: Q04DX002 (ip), vehicle: saline 100 % of control and 90 % of control | dose: 50.0 mg/kg/injection, schedule: Q04DX002 (ip), vehicle: saline 103 % of control | [19] 86 % of control and 97 % of control

Cc1ncc(CO)c(Nc2ccccc2)n1
inactive: [5] 90 % of control | [6] 108 % of control | [7] 96 % of control

CC(C)(SCC(N)C(=O)O)C(N)C(=O)O (centres undefined)
inactive: dose: 100.0 mg/kg/injection, schedule: Q01DX001 (ip), vehicle: saline 95 % of control | [20] 103 % of control | dose: 200.0 mg/kg/injection, schedule: Q01DX001 (ip), vehicle: saline 90 % of control | [21] 94 % of control | [22] 87 % of control | [23] 102 % of control

Oc1ccc(C2=NNC(c3ccc(O)cc3)=NN2)cc1
inactive: dose: 100.0 mg/kg/injection, schedule: Q04DX002 (ip), vehicle: Klucel (hydroxypropylcellulose) (HPC) 105 % of control | dose: 200.0 mg/kg/injection, schedule: Q04DX002 (ip), vehicle: Klucel (hydroxypropylcellulose) (HPC) 97 % of control | dose: 400.0 mg/kg/injection, schedule: Q04DX002 (ip), vehicle: Klucel (hydroxypropylcellulose) (HPC) 94 % of control

Clc1ccccc1OCC1CO1 (centres undefined)
inactive: [8] 93 % of control | [9] 98 % of control | [10] 100 % of control | [11] 98 % of control | [12] 97 % of control | [13] 103 % of control

N#CC1(C#N)OC1c1ccccc1Cl (centres undefined)
inactive: dose: 10.0 mg/kg/injection, schedule: Q04DX002 (ip), vehicle: Klucel (hydroxypropylcellulose) (HPC) 100 % of control | dose: 20.0 mg/kg/injection, schedule: Q04DX002 (ip), vehicle: Klucel (hydroxypropylcellulose) (HPC) 100 % of control

CC(=O)OCCn1c([N+](=O)[O-])cnc1/C=[N+](/[O-])CCO
inactive: [19] 111 % of control | dose: 200.0 mg/kg/injection, schedule: Q04DX002 (ip), vehicle: saline 100 % of control | dose: 400.0 mg/kg/injection, schedule: Q04DX002 (ip), vehicle: saline 100 % of control

CCCCCCCCCCCCOC(C(=O)O)(c1ccccc1)c1ccccc1
inactive: [14] 100 % of control | [15] 91 % of control | [9] 98 % of control and 89 % of control

CCOC(=O)C(CC(OCC)OCC)C(=O)OCC
inactive: [8] 95 % of control | [9] 101 % of control | [10] 96 % of control | [11] 108 % of control | [12] 96 % of control | [13] 100 % of control

O=S(=O)(O)CCN(CCO)CCO
inactive: [20] 98 % of control | [16] 97 % of control | [21] 101 % of control | [17] 101 % of control | [23] 109 % of control | [18] 94 % of control

Cc1c(C)c2c(C(N)=O)c3ccccc3nc2c2ccccc12
inactive: dose: 50.0 mg/kg/injection, schedule: Q04DX003 (ip), vehicle: Klucel (hydroxypropylcellulose) (HPC) 100 % of control | dose: 100.0 mg/kg/injection, schedule: Q04DX003 (ip), vehicle: Klucel (hydroxypropylcellulose) (HPC) 100 % of control | dose: 200.0 mg/kg/injection, schedule: Q04DX003 (ip), vehicle: Klucel (hydroxypropylcellulose) (HPC) 92 % of control | dose: 400.0 mg/kg/injection, schedule: Q04DX003 (ip), vehicle: Klucel (hydroxypropylcellulose) (HPC) 97 % of control

CC(=O)OCC1OC(n2ccc(NC(=S)Nc3ccn(C4OC(COC(C)=O)C(OC(C)=O)C4OC(C)=O)c(=O)n3)nc2=O)C(OC(C)=O)C1OC(C)=O (centres undefined)
inactive: [22] 100 % of control | [18] 105 % of control | dose: 800.0 mg/kg/injection, schedule: Q01DX001 (ip), vehicle: saline 96 % of control | dose: 800.0 mg/kg/injection, schedule: Q01DX009 (ip), vehicle: saline 116 % of control | dose: 800.0 mg/kg/injection, schedule: Q04DX003 (ip), vehicle: saline 98 % of control | dose: 1600.0 mg/kg/injection, schedule: Q01DX001 (ip), vehicle: saline 96 % of control | dose: 1600.0 mg/kg/injection, schedule: Q04DX003 (ip), vehicle: saline 100 % of control

CC(CCC(=O)O)([N+](=O)[O-])[N+](=O)[O-]
inactive: [5] 98 % of control | [6] 102 % of control | [7] 98 % of control
